Results taken from ChEMBL document CHEMBL1129000, “Inhibitors of acyl-CoA: cholesterol O-acyl transferase (ACAT) as hypocholesterolemic agents. The synthesis and biological activity of a series of malonester amides” (Bioorg Med Chem Lett, 1996).
The source made the active and inactive calls. No cut-off for these calls is given here.

What was measured:
Rattus norvegicus [1] = test: In vivo percent change in the total cholesterol after consumption of a single high fat, high cholesterol meal by rats; assay type: functional
O-acyltransferase = O-acyltransferase (Oryctolagus cuniculus, UniProt G1SFD9); test: In vitro inhibitory activity against Acyl coenzyme A:cholesterol acyltransferase in intestinal microsomes isolated from cholesterol fed rabbits (IAI).; parameters: species or system Intestine
O-acyltransferase, sequence (G1SFD9 1-524): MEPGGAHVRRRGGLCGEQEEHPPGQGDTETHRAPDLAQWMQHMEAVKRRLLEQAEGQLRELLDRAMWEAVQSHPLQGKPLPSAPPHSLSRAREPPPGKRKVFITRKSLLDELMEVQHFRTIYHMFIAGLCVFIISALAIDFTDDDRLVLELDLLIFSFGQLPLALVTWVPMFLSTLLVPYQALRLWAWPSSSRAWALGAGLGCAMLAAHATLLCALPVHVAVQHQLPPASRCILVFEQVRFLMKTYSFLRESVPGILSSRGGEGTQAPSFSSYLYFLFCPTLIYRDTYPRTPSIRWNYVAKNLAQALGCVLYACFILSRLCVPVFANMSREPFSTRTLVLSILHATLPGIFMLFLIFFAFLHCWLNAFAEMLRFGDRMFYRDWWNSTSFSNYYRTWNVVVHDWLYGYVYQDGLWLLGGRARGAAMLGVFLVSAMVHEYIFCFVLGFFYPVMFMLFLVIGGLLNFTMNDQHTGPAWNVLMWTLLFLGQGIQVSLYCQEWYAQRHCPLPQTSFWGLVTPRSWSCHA

Rattus norvegicus [2] = test: Tested for the percentage change in non HDL-C in pre-established hypercholesterolemia (CPCC) model at dose of 3 mg/kg.; assay type: functional
Rattus norvegicus [3] = test: Tested for the percentage change in HDL in pre-established hypercholesterolemia (CPCC) model at a dose of 1 mg/kg; assay type: functional
Rattus norvegicus [4] = test: Tested for the percentage change in HDL in pre-established hypercholesterolemia (CPCC) model at a dose of 3 mg/kg.; assay type: functional
Rattus norvegicus [5] = test: Tested for the percentage change in non HDL-C in pre-established hypercholesterolemia (CPCC) model at a dose of 0.1 mg/kg; assay type: functional
Rattus norvegicus [6] = test: Tested for the percentage change in HDL in pre-established hypercholesterolemia (CPCC) model at a dose of 0.1 mg/kg; assay type: functional
Rattus norvegicus [7] = test: Tested for the percentage change in non HDL-C in pre-established hypercholesterolemia (CPCC) model fat at a dose of 1 mg/kg; assay type: functional
Rattus norvegicus [8] = test: Tested for the percentage change in non HDL in pre-established hypercholesterolemia (CPCC) model fat at a dose of 30 mg/kg; Non significant; assay type: functional, organism-based; parameters: dose 30 mg/kg
Rattus norvegicus [9] = test: Tested for the percentage change in non HDL-C in pre-established hypercholesterolemia (CPCC) model at a dose of 30 mg/kg; assay type: functional
Rattus norvegicus [10] = test: Tested for the percentage change in non HDL-C in pre-established hypercholesterolemia (CPCC) model at a dose of 1 mg/kg (p<0.05); assay type: functional
Rattus norvegicus [11] = test: Tested for the percentage change in HDL in pre-established hypercholesterolemia (CPCC) model at a dose of 3 mg/kg (p<0.05); assay type: functional
Rattus norvegicus [12] = test: Tested for the percentage change in non HDL-C in pre-established hypercholesterolemia (CPCC) model at dose of 10 mg/kg (p<0.05); assay type: functional
Rattus norvegicus [13] = test: Tested for the percentage change in HDL in pre-established hypercholesterolemia (CPCC) model at a dose of 10 mg/kg (p<0.05); assay type: functional
Rattus norvegicus [14] = test: Tested for the percentage change in non HDL-C in pre-established hypercholesterolemia (CPCC) model fat at a dose of 3 mg/kg (p<0.05); assay type: functional
Rattus norvegicus [15] = test: Tested for the percentage change in HDL in pre-established hypercholesterolemia (CPCC) model at a dose of 1 mg/kg (p<0.05); assay type: functional
Rattus norvegicus [16] = test: Tested for the percentage change in non HDL-C in pre-established hypercholesterolemia (CPCC) model at a dose of 1 mg/kg; assay type: functional
Rattus norvegicus [17] = test: Tested for the percentage change in HDL in pre-established hypercholesterolemia (CPCC) model at a dose of 3 mg/kg; assay type: functional
Rattus norvegicus [18] = test: Tested for the percentage change in non HDL-C in pre-established hypercholesterolemia (CPCC) model at dose of 10 mg/kg.; assay type: functional
Rattus norvegicus [19] = test: Tested for the percentage change in non HDL-C in pre-established hypercholesterolemia (CPCC) model fat at a dose of 3 mg/kg; assay type: functional
Rattus norvegicus [20] = test: Tested for the percentage change in HDL in pre-established hypercholesterolemia (CPCC) model at a dose of 10 mg/kg.; assay type: functional
Rattus norvegicus [21] = test: Tested for the percentage change in HDL in pre-established hypercholesterolemia (CPCC) model at a dose of 1 mg/kg; No change; assay type: functional, organism-based; parameters: dose 1 mg/kg
Rattus norvegicus [22] = test: Tested for the percentage change in non HDL in pre-established hypercholesterolemia (CPCC) model fat at a dose of 30 mg/kg; assay type: functional
Rattus norvegicus [23] = test: Tested for the percentage change in HDL in pre-established hypercholesterolemia (CPCC) model fat at a dose of 30 mg/kg; assay type: functional

Row | IC50 (O-acyltransferase) [nM] | SMILES | Change (Rattus norvegicus [1]) [%] | further results
1 | 67 | CC(C)c1cccc(C(C)C)c1NC(=O)CC(=O)Oc1c(-c2ccccc2)cccc1-c1ccccc1 | -41 | –
2 | 1000 | COc1cc(OC)c(NC(=O)CC(=O)Oc2c(C(C)C)cccc2C(C)C)c(OC)c1 | -29 | –
3 | 12 | CCCCCCCCCCCCC(C)(C)OC(=O)CC(=O)Nc1c(C(C)C)cccc1C(C)C | -72 | Change (Rattus norvegicus [2]): -19%; Change (Rattus norvegicus [3]): 6%; Change (Rattus norvegicus [4]): -13%; Change (Rattus norvegicus [5]): -11%; Change (Rattus norvegicus [6]): -12%; Change (Rattus norvegicus [7]): -19%
4 | 42 | CC(C)c1cccc(C(C)C)c1NC(=O)CC(=O)Oc1c(C(C)C)cccc1C(C)C | <-50 | Change (Rattus norvegicus [8]): Not significant; Change (Rattus norvegicus [9]): 9%
5 | 320 | COc1cc(OC)c(OC(=O)CC(=O)Nc2c(C(C)C)cccc2C(C)C)c(OC)c1 | -9 | –
6 | 6400 | CC(C)c1cccc(C(C)C)c1OC(=O)CC(=O)Nc1ccc(F)cc1F | – | –
7 | – | CCCCCCCCCCCCC(C)OC(=O)CC(=O)Nc1c(C(C)C)cccc1C(C)C (stereo not given) | -54 | Change (Rattus norvegicus [10]): -54%; Change (Rattus norvegicus [11]): 157%; Change (Rattus norvegicus [12]): -83%; Change (Rattus norvegicus [13]): 114%; Change (Rattus norvegicus [14]): -73%; Change (Rattus norvegicus [15]): 64%
8 | 71 | CC(C)c1cccc(C(C)C)c1OC(=O)CC(=O)Nc1c(N(C)C)cccc1N(C)C | -29 | –
9 | 210 | Cc1cccc(C)c1NC(=O)CC(=O)Oc1c(C(C)C)cccc1C(C)C | 5 | –
10 | 810 | CCCCCCOC(=O)CC(=O)Nc1c(C(C)C)cccc1C(C)C | -29 | –
11 | 11 | CCCCCCCCCCCCCCC(C)OC(=O)CC(=O)Nc1c(C(C)C)cccc1C(C)C (stereo not given) | -60 | Change (Rattus norvegicus [2]): -2%; Change (Rattus norvegicus [3]): 13%; Change (Rattus norvegicus [4]): -24%; Change (Rattus norvegicus [5]): -8%; Change (Rattus norvegicus [6]): -12%; Change (Rattus norvegicus [7]): 7%
12 | 6 | CCCCCCCCCCC(C)OC(=O)CC(=O)Nc1c(C(C)C)cccc1C(C)C (stereo not given) | -70 | Change (Rattus norvegicus [16]): -15%; Change (Rattus norvegicus [17]): 36%; Change (Rattus norvegicus [18]): -51%; Change (Rattus norvegicus [19]): -40%; Change (Rattus norvegicus [20]): 29%; Change (Rattus norvegicus [21]): inactive
13 | > 5000 | CC(C)c1cccc(C(C)C)c1NC(=O)CC(=O)O | – | –
14 | 15 | CCCCCCCCCCCCCCOC(=O)CC(=O)Nc1c(C(C)C)cccc1C(C)C | -61 | Change (Rattus norvegicus [9]): -11%; Change (Rattus norvegicus [22]): 6%
15 | 4 | CCCCCCCCCCCC[C@@H](C)OC(=O)CC(=O)Nc1c(C(C)C)cccc1C(C)C | -67 | –
16 | > 5000 | CC(C)c1cccc(C(C)C)c1NC(=O)CC(=O)OC(c1ccccn1)c1ccccn1 | -55 | –
17 | > 5000 | CC(C)c1cccc(C(C)C)c1OC(=O)CC(=O)Nc1c(F)cc(F)cc1F | -9 | –

Row | IC50 (O-acyltransferase) [nM] | SMILES | Change (Rattus norvegicus [1]) [%] | further results
18 | 11 | CCCCCCCCCCCCOC(=O)CC(=O)Nc1c(C(C)C)cccc1C(C)C | -52 | Change (Rattus norvegicus [9]): -8%; Change (Rattus norvegicus [23]): -21%
19 | 260 | CCCCCCCCOC(=O)CC(=O)Nc1c(C(C)C)cccc1C(C)C | -43 | –
20 | 53 | CCCCCCCCCCOC(=O)CC(=O)Nc1c(C(C)C)cccc1C(C)C | -37 | –
21 | 27 | CCCCCC(C)OC(=O)CC(=O)Nc1c(C(C)C)cccc1C(C)C (stereo not given) | -46 | –
22 | 1700 | COc1cccc(OC)c1OC(=O)CC(=O)Nc1c(C(C)C)cccc1C(C)C | 5 | –
23 | 38 | CC(C)c1cccc(C(C)C)c1NC(=O)CC(=O)OC(c1ccccc1)c1ccccc1 | -41 | –
24 | 4 | CCCCCCCCCCCC[C@H](C)OC(=O)CC(=O)Nc1c(C(C)C)cccc1C(C)C | -66 | –
25 | 35 | CCCCCCCCCCCCCCCCOC(=O)CC(=O)Nc1c(C(C)C)cccc1C(C)C | -56 | –
26 | 15 | CCCCC(C)(C)OC(=O)CC(=O)Nc1c(C(C)C)cccc1C(C)C | -52 | –
27 | 12 | CCCCCCCCC(C)OC(=O)CC(=O)Nc1c(C(C)C)cccc1C(C)C (stereo not given) | -61 | –
28 | > 5000 | CC(C)c1cccc(C(C)C)c1NC(=O)CC(=O)OC(c1ccccc1)c1ccccn1 (stereo not given) | – | –
29 | 1800 | CCOC(=O)CC(=O)Nc1c(C(C)C)cccc1C(C)C | – | –
30 | 6200 | CC(C)c1cccc(C(C)C)c1OC(=O)CC(=O)Nc1c(F)cccc1F | 4 | –
31 | 53 | CCCCCCCCCCCCCCCCCCOC(=O)CC(=O)Nc1c(C(C)C)cccc1C(C)C | -16 | –
32 | > 5000 | CC(C)c1cccc(C(C)C)c1OC(=O)CC(=O)Nc1ccccc1 | – | –
33 | 130 | CC(C)c1cccc(C(C)C)c1NC(=O)CC(=O)OC(C)(C)C | -24 | –
